Measurements published in US20090137451A1, “Methods for Assessing Suitability of Cancer Patients for Treatment with Histone Deacetylase Inhibitors” (Agency for Science, Technology and Research, priority 2005, published 2009).

Assays:
Format in all cases: cell-based, human
[1] = test system: ER-E2F1 expressing HCT116 p53 null cells; experiment: Cell death (sub-G1) by PI staining and FACS in ER-E2F1 expressing cells; conditions: for sub-G1 cells indicative of cell death: 48 h; for SAHA-induced apoptosis (cells in Sub-G1): in the presence of 4-OHT, SAHA 24 h
Method: The effect of Bim-specific siRNA on HDACI-induced apoptosis upon E2F1 overexpression. (a) ER-E2F1 were transfected with nonspecific control siRNA (NC siRNA) or Bim-specific siRNA for 48 h, and then either left untreated (−) or treated with 4-OHT, SAHA or both for additional 24 h. […] Cell death was analyzed by flow cytometry following propidium iodide staining (right panel). The percentages of cells in Sub-G1 are indicated. (b) ER-E2F1 were transfected with nonspecific control siRNA (NC siRNA) or Bim-specific siRNA for 48 h, and then either left untreated (−) or treated with 4-OHT, 100 nM TSA or both for additional 48 h.
Cells were harvested and fixed in 70% ethanol. Fixed cells were stained with propidium iodide (50 μg/ml) after treatment with RNase (100 μg/ml). The stained cells were analyzed for DNA content by fluorescence-activated cell sorting (FACS) in a FACScalibur (Becton Dickinson Instrument, San Jose, Calif.). Cell cycle fractions were quantified using the CellQuest software (Becton Dickinson).
To definitively establish the role of Bim in HDACIs-induced apoptosis upon E2F1 activation, we used RNA interference to silence Bim expression and analyzed its biological effects. To this end, we transfected ER-E2F1 expressing cells with Bim-specific siRNA and treated with SAHA for 24 h in the presence or absence of 4-OHT. As controls, cells were also transfected with an irrelevant siRNA.

[2] = test system: E1A-transformed IMR90 cells; experiment: Apoptosis by FACS analysis in E1A-transformed IMR90 cells; conditions: SAHA 2.5 μM, TSA 300 nM; 48 h
Method: FIG. 5. Rb inactivation enhances Bim expression and sensitizes HDACIs-induced apoptosis. (a) U2OS cells were infected with Ad-E1A or Ad-LacZ for 24 h and treated with SAHA (1 μM) for additional 48 h. Cell death was determined by FACS analysis (right panel), and the levels of Bim and p73 were assessed by immunoblotting using antibodies against the indicated proteins (left panel). (b) Normal IMR90 and transformed IMR90-E1A cells were treated with SAHA at indicated concentrations and cell proliferation was evaluated for indicated times. (c) Expression of E1A results in upregulation of Bim and apoptosis potentiation in response to SAHA and TSA. […] Cell death was determined by FACS analysis (left panel), and the levels of Bim and p73 were assessed by immunoblotting using antibodies against indicated proteins (right panel). […] The expressions of Bim and β-actin were assessed by immunoblotting using antibodies against the indicated proteins. Apoptosis was evaluated by FACS analysis. […] The expressions of E2F1, Bim and PARP were assessed by immunoblotting using antibodies against the indicated proteins. […] Apoptosis was evaluated by FACS analysis.
Cells were harvested and fixed in 70% ethanol. […] The stained cells were analyzed for DNA content by fluorescence-activated cell sorting (FACS) in a FACScalibur (Becton Dickinson Instrument, San Jose, Calif.). […]

normal IMR90 cells = experiment: Cell proliferation, dose-response, normal IMR90 cells; conditions: dose-response study, FIG. 5b
Method: (§1) FIG. 5. Rb inactivation enhances Bim expression and sensitizes HDACIs-induced apoptosis. (a) U2OS cells were infected with Ad-E1A or Ad-LacZ for 24 h and treated with SAHA (1 μM) for additional 48 h. Cell death was determined by FACS analysis (right panel), and the levels of Bim and p73 were assessed by immunoblotting using antibodies against the indicated proteins (left panel). (b) Normal IMR90 and transformed IMR90-E1A cells were treated with SAHA at indicated concentrations and cell proliferation was evaluated for indicated times. (c) Expression of E1A results in upregulation of Bim and apoptosis potentiation in response to SAHA and TSA. IMR90 and IMR90-E1A cells were treated with SAHA (2.5 μM) and TSA (300 nM) for 48 h. Cell death was determined by FACS analysis (left panel), and the levels of Bim and p73 were assessed by immunoblotting using antibodies against indicated proteins (right panel). (d) IMR90-E1A cells transfected with Bim siRNA or control siRNA (NC siRNA) were treated with TSA (800 nM) for 24 h. The expressions of Bim and β-actin were assessed by immunoblotting using antibodies against the indicated proteins. Apoptosis was evaluated by FACS analysis. […] The expressions of E2F1, Bim and PARP were assessed by immunoblotting using antibodies against the indicated proteins. […] Apoptosis was evaluated by FACS analysis. […]

[3] = test system: transformed IMR90-E1A cells; experiment: Cell proliferation, dose-response, transformed IMR90-E1A cells; conditions: dose-response study, FIG. 5b
Method: as §1

ER-E2F1 expressing cells = experiment: Colony formation assay; conditions: 100 nM TSA or 1 μM SAHA for 24 h, with 4-OHT; colonies stained with crystal violet
Method: FIG. 1. HDACIs SAHA and TSA promote E2F1-mediated cell death (a) p53 null HCT116-ER-E2F1 expressing cells or control ER expressing cells were treated with or without 4-OHT. Cyclin E and p73 expression were evaluated by immunoblot analysis. (b) ER-E2F1 expressing or control cells were treated with 1 μM SAHA (left panel) or 100 nM TSA (right panel), in the presence or absence of 4-OHT. After 48 h, cells were harvested and cell death was assessed by PI staining using FACS. Mean results of three independent experiments were shown with standard deviations. (c) Colony formation assay. […] (d) Saos-2 and HCT116 cells infected with adenovirus containing E2F1 or LacZ as indicated were treated with 100 nM TSA for 24 h, and cell death was analyzed by FACS.
1000 cells were plated per well of a 6-well plate for 24-48 h and then followed by 100 nM TSA or 1 μM SAHA treatment in the presence or absence of 4-OHT. […] Colonies were stained with crystal violet and counted after 12 days.
To investigate whether E2F1 activation induces sensitization of cells to HDACIs-induced cell death, we analyzed the cell cycle profiles by FACS (fluorescence-activated cell sorter) in ER-E2F1 expressing HCT116 p53 null cells (ER-E2F1) and the control cells expressing ER-binding domain only (ER) following treatment with the HDACIs SAHA or TSA in the presence or absence of 4-OHT. […]

[4] = agent alone, 1 μM SAHA, PI staining FACS
[5] = both 4-OHT and HDACI (1 μM SAHA or 100 nM TSA)

Row | Compound | sub-G1 cells indicative of cell death [1, 4] | sub-G1 cells indicative of cell death [1, 5] | SAHA-induced apoptosis (cells in Sub-G1) ([1]; cells treated with Bim siRNA) [%] | SAHA-induced apoptosis (cells in Sub-G1) ([1]; control siRNA treated cells) [%] | apoptosis [2] [%] | proliferation (normal IMR90 cells) | proliferation [3] | effect of E2F1 activation by 4-OHT on HDACI-induced growth inhibition (ER-E2F1 expressing cells)
1 | 4-hydroxytamoxifen [4-OHT] | approximately 13% |  |  |  |  |  |  | 
2 | O=C(CCCCCCC(=O)Nc1ccccc1)NO [SAHA, suberoylanilide hydroxamic acid] | ~23% | 75% | 18 | 49 | ~60 | substantially inhibited proliferation | substantially inhibited proliferation | greatly promoted
3 | CC(/C=C/C(=O)NO)=C\[C@@H](C)C(=O)c1ccc(N(C)C)cc1 [TSA, Trichostatin A] |  | Identical results |  |  | ~60 |  |  | greatly promoted
